# Measured values taken from patent publication US20240360146A1, “BRUTON'S TYROSINE KINASE AND MUTANT DEGRADER, COMPOSITION AND APPLICATION THEREOF” (HANGZHOU HEALZEN THERAPEUTICS CO., LTD., priority 2021, published 2024).
# Target: T1, BTK (Homo sapiens, UniProt Q06187)
# T1 construct: endogenous in cells; host or cells: Mino cells
# Experiment: BTK degradation activity test in Mino cells
# Format: cell-based
# Conditions: 16 h incubation, Western blot or Elisa
# How it was run: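 Mino cells treated with a concentration series of compound for 16 h, then lysed; total protein by BCA. BTK quantified by Western blot or ELISA, degradation rate calculated against blank control, and DC50 fitted from the degradation curve.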
# T1 sequence (Q06187 whole entry): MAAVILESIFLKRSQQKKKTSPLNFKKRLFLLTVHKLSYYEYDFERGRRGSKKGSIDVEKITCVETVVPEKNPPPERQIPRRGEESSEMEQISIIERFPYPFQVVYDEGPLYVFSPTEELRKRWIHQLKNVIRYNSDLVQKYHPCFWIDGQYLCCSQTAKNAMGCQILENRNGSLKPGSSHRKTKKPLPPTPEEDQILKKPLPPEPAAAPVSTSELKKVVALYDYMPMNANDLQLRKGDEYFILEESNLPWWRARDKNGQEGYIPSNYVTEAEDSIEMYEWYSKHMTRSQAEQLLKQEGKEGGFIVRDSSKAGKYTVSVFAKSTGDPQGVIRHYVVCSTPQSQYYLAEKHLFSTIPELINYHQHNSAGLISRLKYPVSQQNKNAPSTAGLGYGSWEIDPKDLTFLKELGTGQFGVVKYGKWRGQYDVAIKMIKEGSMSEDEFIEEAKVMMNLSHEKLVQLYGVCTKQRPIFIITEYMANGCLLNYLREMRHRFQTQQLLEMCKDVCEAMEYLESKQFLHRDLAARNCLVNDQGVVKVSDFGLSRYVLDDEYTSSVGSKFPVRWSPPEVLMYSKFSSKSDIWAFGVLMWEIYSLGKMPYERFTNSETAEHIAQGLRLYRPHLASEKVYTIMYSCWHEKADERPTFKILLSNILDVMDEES
row,DC50 [nM],Compound
1,< 1,"CN1CCN([C@@H]2CCCN(c3nnc(C(N)=O)c(Nc4ccc(N5CCN(CC6CCN(c7ccc8c9c(oc8c7)C(=O)N(C7CCC(=O)NC7=O)C9)C6)CC5)c(F)c4)n3)C2)C1=O (stereo partly drawn) [Compound 221, 5-((4-(4-((1-(2-(2,6-dioxopiperidin-3-yl)-3-oxo-2,3-dihydro-H-benzofuro[2,3-c]pyrrol-6-yl)pyrrolidin-3-yl)methyl)piperazin-1-yl)-3-fluorophenyl)amino)-3-((R)-3-(3-methyl-2-oxoimidazolidin-1-yl)piperidin-1-yl)-1,2,4-triazin-6-carboxamide]"
2,< 1,"CN1CCN([C@@H]2CCCN(c3nnc(C(N)=O)c(Nc4ccc(N5CCN(C#Cc6ccc(C(=O)NC7CCC(=O)NC7=O)c(F)c6)CC5)c(F)c4)n3)C2)C1=O (stereo partly drawn) [Compound 225, 5-((4-(4-((4-((2,6-dioxopiperidin-3-yl)carbamoyl)-3-fluorophenyl)ethynyl)piperazin-1-yl)-3-fluorophenyl)amino)-3-((R)-3-(3-methyl-2-oxoimidazolidin-1-yl)piperidin-1-yl)-1,2,4-triazin-6-carboxamide]"
3,< 1,"Cc1cc(C#CCN2CCN(c3ccc(Nc4nc(N5CCC[C@@H](N6CCN(C)C6=O)C5)nnc4C(N)=O)cc3F)CC2)ccc1C(=O)NC1CCC(=O)NC1=O (stereo partly drawn) [Compound 226, 5-((4-(4-(3-(4-((2,6-dioxopiperidin-3-yl)carbamoyl)-3-methylphenyl)propan-2-yn-1-yl)piperazin-1-yl)-3-fluorophenyl)amino)-3-((R)-3-(3-methyl-2-oxoimidazolidin-1-yl)piperidin-1-yl)-1,2,4-triazin-6-carboxamide]"
4,< 1,"CN1CCN([C@@H]2CCCN(c3nnc(C(N)=O)c(Nc4ccc(N5CCN(CC#Cc6ccc(NC7CCC(=O)NC7=O)c(F)c6)CC5)c(F)c4)n3)C2)C1=O (stereo partly drawn) [Compound 228, 5-((4-(4-(3-(4-((2,6-dioxopiperidin-3-yl)amino)-3-fluorophenyl)propan-2-yn-1-yl)piperazin-1-yl)-3-fluorophenyl)amino)-3-((R)-3-(3-methyl-2-oxoimidazolidin-1-yl)piperidin-1-yl)-1,2,4-triazin-6-carboxamide]"
5,< 1,"CN1CCN([C@@H]2CCCN(c3nnc(C(N)=O)c(Nc4ccc(N5CCN(CC#Cc6ccc(NC7CCC(=O)NC7=O)c7ocnc67)CC5)c(F)c4)n3)C2)C1=O (stereo partly drawn) [Compound 229, 5-((4-(4-(3-(7-((2,6-dioxopiperidin-3-yl)amino)benzo[d]oxazol-4-yl)propan-2-yn-1-yl)piperazin-1-yl)-3-fluorophenyl)amino)-3-((R)-3-(3-methyl-2-oxoimidazolidin-1-yl)piperidin-1-yl)-1,2,4-triazin-6-carboxamide]"
6,< 1,"CN1CCN([C@@H]2CCCN(c3nnc(C(N)=O)c(Nc4ccc(N5CCN(CC#Cc6ccc(C(=O)NC7CCC(=O)NC7=O)s6)CC5)c(F)c4)n3)C2)C1=O (stereo partly drawn) [Compound 230, 5-((4-(4-(3-(5-((2,6-dioxopiperidin-3-yl)carbamoyl)thiophen-2-yl)propan-2-yn-1-yl)piperazin-1-yl)-3-fluorophenyl)amino)-3-((R)-3-(3-methyl-2-oxoimidazolidin-1-yl)piperidin-1-yl)-1,2,4-triazin-6-carboxamide]"
7,< 1,"CN1CCN([C@@H]2CCCN(c3nnc(C(N)=O)c(Nc4cc(F)c5c(c4)CCN(CC4CCN(c6ccc7c(c6)C(=O)N(C6CCC(=O)NC6=O)C7=O)CC4)CC5)n3)C2)C1=O (stereo partly drawn) [Compound 231, 5-((3-((1-(2-(2,6-dioxopiperidin-3-yl)-1,3-dioxoisoindolin-5-yl)piperidin-4-yl)methyl)-9-fluoro-2,3,4,5-tetrahydro-1H-benzo[d]azepin-7-yl)amino)-3-((R)-3-(3-methyl-2-oxoimidazolidin-1-yl)piperidin-1-yl)-1,2,4-triazin-6-carboxamide]"
8,< 1,"CN1CCN([C@@H]2CCCN(c3nnc(C(N)=O)c(Nc4ccc(N5CCN(CC6CCN(c7ccc(N8CCC(=O)NC8=O)c(C(N)=O)c7)CC6)CC5)c(F)c4)n3)C2)C1=O [Compound 233, (R)-5-((4-(4-((1-(3-carbamoyl-4-(2,4-dioxotetrahydropyrimidin-1(2H)-yl)phenyl)piperidin-4-yl)methyl)piperazin-1-yl)-3-fluorophenyl)amino)-3-(3-(3-methyl-2-oxoimidazolidin-1-yl)piperidin-1-yl)-1,2,4-triazin-6-carboxamide]"
9,< 1,"CN1CCN([C@@H]2CCCN(c3nnc(C(N)=O)c(Nc4ccc(N5CCN(CC6CCN(c7ccc(N8CCC(=O)NC8=O)cc7)CC6)C(=O)C5)c(F)c4)n3)C2)C1=O [Compound 235, (R)-5-((4-(4-((1-(4-(2,4-dioxotetrahydropyrimidin-1(2H)-yl)phenyl)piperidin-4-yl)methyl)-3-oxopiperazin-1-yl)-3-fluorophenyl)amino)-3-(3-(3-methyl-2-oxoimidazolidin-1-yl)piperidin-1-yl)-1,2,4-triazin-6-carboxamide]"
10,< 1,"Cc1cc(N2CCC(CN3CCC(c4ccc(Nc5nc(N6CCC[C@@H](N7CCN(C)C7=O)C6)nnc5C(N)=O)cc4CO)CC3)CC2)ccc1N1CCC(=O)NC1=O [Compound 237, (R)-5-((4-(1-((1-(4-(2,4-dioxotetrahydropyrimidin-1(2H)-yl)-3-methylphenyl)piperidin-4-yl)methyl)piperidin-4-yl)-3-(hydroxymethyl)phenyl)amino)-3-(3-(3-methyl-2-oxoimidazolidin-1-yl)piperidin-1-yl)-1,2,4-triazin-6-carboxamide]"
11,< 1,"Cc1cc(N2CCC(CN3CCC(c4ccc(Nc5nc(N6CCC[C@@H](N7CCN(C)C7=O)C6)nnc5C(N)=O)c(CO)c4)CC3)CC2)ccc1N1CCC(=O)NC1=O [Compound 238, (R)-5-((4-(1-((1-(4-(2,4-dioxotetrahydropyrimidin-1(2H)-yl)-3-methylphenyl)piperidin-4-yl)methyl)piperidin-4-yl)-2-(hydroxymethyl)phenyl)amino)-3-(3-(3-methyl-2-oxoimidazolidin-1-yl)piperidin-1-yl)-1,2,4-triazin-6-carboxamide]"
12,< 1,"Cc1cc(N2CC(CC(=O)N3CCC(c4ccc(Nc5nc(N6CCC[C@@H](N7CCN(C)C7=O)C6)nnc5C(N)=O)c(CO)c4)CC3)C2)ccc1N1CCC(=O)NC1=O [Compound 239, (R)-5-((4-(1-(2-(1-(4-(2,4-dioxotetrahydropyrimidin-1(2H)-yl)-3-methylphenyl)azetidin-3-yl)acetyl)piperidin-4-yl)-2-(hydroxymethyl)phenyl)amino)-3-(3-(3-methyl-2-oxoimidazolidin-1-yl)piperidin-1-yl)-1,2,4-triazin-6-carboxamide]"
13,< 1,"CN1CCN([C@@H]2CCCN(c3nnc(C(N)=O)c(Nc4ccc(C5CCN(CC6CCN(c7ccc(N8CCC(=O)NC8=O)cc7)CC6)CC5)c(CO)c4)n3)C2)C1=O [Compound 240, (R)-5-((4-(1-((1-(4-(2,4-dioxotetrahydropyrimidin-1(2H)-yl)phenyl)piperidin-4-yl)methyl)piperidin-4-yl)-3-(hydroxymethyl)phenyl)amino)-3-(3-(3-methyl-2-oxoimidazolidin-1-yl)piperidin-1-yl)-1,2,4-triazin-6-carboxamide]"
14,< 1,"Cc1cc(N2CCC(CN3CCC(c4ccc(Nc5nc(N6CCC[C@@H](N7CCN(C)C7=O)C6)c(F)nc5C(N)=O)cc4F)CC3)CC2)ccc1N1CCC(=O)NC1=O [Compound 241, (R)-3-((4-(1-((1-(4-(2,4-dioxotetrahydropyrimidin-1(2H)-yl)-3-methylphenyl)piperidin-4-yl)methyl)piperidin-4-yl)-3-fluorophenyl)amino)-6-fluoro-5-(3-(3-methyl-2-oxoimidazolidin-1-yl)piperidin-1-yl)pyrazin-2-carboxamide]"
15,< 1,"Cc1cc(N2CCC(CN3CCC(c4ccc(Nc5c(F)c(N6CCC[C@@H](N7CCN(C)C7=O)C6)c(F)c(F)c5C(N)=O)cc4F)CC3)CC2)ccc1N1CCC(=O)NC1=O [Compound 242, (R)-2-((4-(1-((1-(4-(2,4-dioxotetrahydropyrimidin-1(2H)-yl)-3-methylphenyl)piperidin-4-yl)methyl)piperidin-4-yl)-3-fluorophenyl)amino)-3,5,6-trifluoro-4-(3-(3-methyl-2-oxoimidazolidin-1-yl)piperidin-1-yl)benzamide]"
16,< 1,"CN1CCN([C@@H]2CCCN(c3nnc(C(N)=O)c(Nc4ccc(N5CCN(CC6CCN(c7ccc8c(C9CCC(=O)NC9=O)noc8c7)CC6)CC5)c(F)c4)n3)C2)C1=O (stereo partly drawn) [Compound 243, 5-((4-(4-((1-(3-(2,6-dioxopiperidin-3-yl)benzo[d]isoxazol-6-yl)piperidin-4-yl)methyl)piperazin-1-yl)-3-fluorophenyl)amino)-3-((R)-3-(3-methyl-2-oxoimidazolidin-1-yl)piperidin-1-yl)-1,2,4-triazin-6-carboxamide]"
17,< 1,"CN1CCN([C@@H]2CCCN(c3nnc(C(N)=O)c(Nc4ccc(N5CCN(CC6CCN(c7ccn8c(C9CCC(=O)NC9=O)cnc8c7)CC6)CC5)c(F)c4)n3)C2)C1=O (stereo partly drawn) [Compound 244, 5-((4-(4-((1-(3-(2,6-dioxopiperidin-3-yl)imidazo[1,2-a]pyridin-7-yl)piperidin-4-yl)methyl)piperazin-1-yl)-3-fluorophenyl)amino)-3-((R)-3-(3-methyl-2-oxoimidazolidin-1-yl)piperidin-1-yl)-1,2,4-triazin-6-carboxamide]"
18,< 1,CN1CCN([C@@H]2CCCN(c3nnc(C(N)=O)c(Nc4ccc(N5CCN(CC6CCN(c7ccn8c(N9CCC(=O)NC9=O)cnc8c7)CC6)CC5)c(F)c4)n3)C2)C1=O [Compound 245]
19,< 1,"CN1CCN([C@@H]2CCCN(c3nnc(C(N)=O)c(Nc4ccc(N5CCN(CC#Cc6ccn7c(N8CCC(=O)NC8=O)cnc7c6)CC5)c(F)c4)n3)C2)C1=O [Compound 246, (R)-5-((4-(4-(3-(3-(2,4-dioxotetrahydropyrimidin-1(2H)-yl)imidazo[1,2-a]pyridin-7-yl)propan-2-yn-1-yl)piperazin-1-yl)-3-fluorophenyl)amino)-3-(3-(3-methyl-2-oxoimidazolidin-1-yl)piperidin-1-yl)-1,2,4-triazin-6-carboxamide]"
